pIC50: −log10 of the molar value. Where two headings read alike, the source gives them in different places.
Assays:
[1] = biological target: Recombinant Human ENPP-1 Protein (Homo sapiens (Human), UniProt P22413); assay: ENPP1 Inhibition Assay; format: biochemical
Experimental: Assay Buffer: 1 mM CaCl2), 0.2 mM ZnCl2, 50 mM Tris, pH 9.0. Substrate: 8 mM Thymidine 5′-monophosphate p-nitrophenol ester sodium salt (Sigma Cat #T4510). Enzyme: […] Recombinant Human ENPP-1 Protein (R&D Cat #6136-EN-010) in DMSO in 96-well clear assay plates.
An eight point serial dilution of drugs was prepared in 10× in assay buffer with the final assay concentrations starting at 10 μM, 3 μM, 1 μM, 0.3 μM and 0 μM. A dilution of DMSO was included as a control. The assay plate was set up as follows with each well in duplicate: 81 μL assay buffer+10 μL ENPP1 inhibitor or DMSO+5 μL Substrate+4 μL Enzyme. Both the enzyme and substrate was added to opposite sides of the well to ensure that there was no interaction until all wells had both components. The plate was then centrifuged gently for 10 seconds, followed by an incubation at 37° C. for 45 minutes. The reaction was quantified by measuring absorbance at 405 nm using an Envision plate reader.
IC50 values are determined using GraphPad Prism 5 software. The data were entered as an X-Y plot into the software as percent inhibition for each concentration of the drug. The concentration values of the drug were log transformed and the nonlinear regression was carried out using the “sigmoidal dose-response (variable slope)” option within the GraphPad software to model the data and calculate IC50 values. The IC50 values reported are the concentration of drug at which 50% inhibition was reached.

Recombinant CndP (CdnP) = Recombinant CndP (CdnP) (Mycobacterium tuberculosis (strain ATCC 25618 / H37Rv), UniProt P71615); assay: CndP Assay with BPNPP substrate; format: biochemical, M. tuberculosis; conditions: pH 8.0, 37° C. 45 minutes, read-out: Inhibition of CdnP IC50
Recombinant CdnP Protein = Recombinant CdnP Protein (Mycobacterium tuberculosis (strain ATCC 25618 / H37Rv), UniProt P71615); assay: CdnP HPLC Assay with C-DI-AMP Substrate; format: biochemical, M. tuberculosis; conditions: HPLC AMP peak area, read-out: Inhibition percentage of CdnP; for inhibition at 100 µM: 100 μM compound
[2] = substrate thymidine 5′-monophosphate p-nitrophenol ester, pH 9.0, 37° C. 45 minutes, read-out: Inhibition of ENPP1 IC50

Chain of Recombinant CdnP Protein (P71615 whole entry, looked up): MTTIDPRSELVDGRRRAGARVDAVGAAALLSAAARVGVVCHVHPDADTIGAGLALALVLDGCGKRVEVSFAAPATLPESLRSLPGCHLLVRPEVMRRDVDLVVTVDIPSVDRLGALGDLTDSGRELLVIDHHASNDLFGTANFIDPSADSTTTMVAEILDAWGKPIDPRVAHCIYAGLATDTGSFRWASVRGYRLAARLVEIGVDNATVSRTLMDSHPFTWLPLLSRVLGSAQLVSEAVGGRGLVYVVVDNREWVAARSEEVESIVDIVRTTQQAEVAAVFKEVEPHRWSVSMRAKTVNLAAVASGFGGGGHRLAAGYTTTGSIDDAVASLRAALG
Chain of Recombinant CndP (CdnP) (P71615 whole entry, looked up): as above
Chain of Recombinant Human ENPP-1 Protein (P22413 99-925): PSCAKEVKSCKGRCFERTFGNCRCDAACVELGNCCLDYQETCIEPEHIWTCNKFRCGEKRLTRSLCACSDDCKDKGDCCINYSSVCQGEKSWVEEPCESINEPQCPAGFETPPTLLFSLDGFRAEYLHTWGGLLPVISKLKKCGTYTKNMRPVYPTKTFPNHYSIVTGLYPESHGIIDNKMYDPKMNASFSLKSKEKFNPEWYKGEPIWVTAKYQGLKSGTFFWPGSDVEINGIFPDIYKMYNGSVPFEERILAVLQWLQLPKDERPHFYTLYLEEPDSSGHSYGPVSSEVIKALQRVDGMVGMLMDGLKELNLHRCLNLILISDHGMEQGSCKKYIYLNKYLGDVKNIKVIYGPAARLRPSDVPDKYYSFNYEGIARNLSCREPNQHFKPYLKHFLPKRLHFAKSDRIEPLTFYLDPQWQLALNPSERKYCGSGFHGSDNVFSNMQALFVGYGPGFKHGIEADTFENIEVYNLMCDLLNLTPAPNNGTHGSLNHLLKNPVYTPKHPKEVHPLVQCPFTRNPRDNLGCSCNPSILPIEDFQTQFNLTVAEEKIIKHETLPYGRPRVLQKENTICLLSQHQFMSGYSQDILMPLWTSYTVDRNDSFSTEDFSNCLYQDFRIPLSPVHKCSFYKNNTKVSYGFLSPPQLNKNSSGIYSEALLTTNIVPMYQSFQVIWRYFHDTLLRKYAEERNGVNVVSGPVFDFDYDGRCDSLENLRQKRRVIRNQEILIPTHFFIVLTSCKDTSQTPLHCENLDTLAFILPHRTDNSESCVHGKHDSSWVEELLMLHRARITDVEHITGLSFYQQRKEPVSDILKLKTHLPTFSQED

SMILES | pIC50 [1] | pIC50 (Recombinant CndP (CdnP)) | inhibition at 1 µM (Recombinant CdnP Protein; 1 μM compound) [%] | inhibition at 10 µM (Recombinant CdnP Protein; 10 μM compound) [%] | inhibition at 100 µM (Recombinant CdnP Protein) [%] | pIC50 [1, 2]
COc1cc2ncnc(N3CCC[C@@H](CP(=O)(O)O)CC3)c2cc1OC [Compound I-1, (R)-((1-(6,7-dimethoxyquinazolin-4-yl)azepan-4-yl)methyl)phosphonic acid] | 7.00 to 8.00 | 6.00 to 7.00 | < 20 | > 50 | > 50 | –
COc1cc2ncnc(N3CCC[C@H](CP(=O)(O)O)CC3)c2cc1OC [Compound I-2, (S)-((1-(6,7-dimethoxyquinazolin-4-yl)azepan-4-yl)methyl)phosphonic acid] | – | 6.00 to 7.00 | – | – | – | < 7.00
COc1cc2ncnc(N3CCCC(CP(=O)(O)O)CC3)c2cc1OC (stereo not drawn) [Compound I-3, ((1-(6,7-dimethoxyquinazolin-4-yl)azepan-4-yl)methyl)phosphonic acid] | 7.00 to 8.00 | 6.00 to 7.00 | – | – | – | –
COc1cc2ncnc(N3CCCC(CCP(=O)(O)O)CC3)c2cc1OC (stereo not drawn) [Compound I-4, (2-(1-(6,7-dimethoxyquinazolin-4-yl)azepan-4-yl)ethyl)phosphonic acid] | – | > 7.00 | – | – | – | > 8.00
COc1cc2ncnc(N3CCCC(CCCP(=O)(O)O)CC3)c2cc1OC (stereo not drawn) [Compound I-5, (3-(1-(6,7-dimethoxyquinazolin-4-yl)azepan-4-yl)propyl)phosphonic acid] | 7.00 to 8.00 | 6.00 to 7.00 | – | – | – | –
COc1cc2ncnc(N3CCCN(CP(=O)(O)O)CC3)c2cc1OC [Compound I-6, ((4-(6,7-dimethoxyquinazolin-4-yl)-1,4-diazepan-1-yl)methyl)phosphonic acid] | – | < 6.00 | – | – | – | < 7.00
COc1cc2ncc(C#N)c(N3CCCC(CP(=O)(O)O)CC3)c2cc1OC (stereo not drawn) [Compound I-7, ((1-(3-cyano-6,7-dimethoxyquinolin-4-yl)azepan-4-yl)methyl)phosphonic acid] | – | > 7.00 | – | – | – | > 8.00
COc1cccc2c(N3CCCC(CP(=O)(O)O)CC3)ccnc12 (stereo not drawn) [Compound I-8, ((1-(8-methoxyquinolin-4-yl)azepan-4-yl)methyl)phosphonic acid] | – | 6.00 to 7.00 | – | – | – | < 7.00
COc1cccc2c(N3CCCC(CP(=O)(O)O)CC3)ncnc12 (stereo not drawn) [Compound I-9, ((1-(8-methoxyquinazolin-4-yl)azepan-4-yl)methyl)phosphonic acid] | – | 6.00 to 7.00 | – | – | – | > 8.00
COc1cc2ncnc(N3CCCC(CP(=O)(OCOC(=O)C(C)C)OCOC(=O)C(C)C)CC3)c2cc1OC (stereo not drawn) [Compound I-10, ((((1-(6,7-dimethoxyquinazolin-4-yl)azepan-4-yl)methyl)phosphoryl)bis(oxy))bis(methylene) bis(2-methylpropanoate)] | – | < 6.00 | – | – | – | < 7.00
COc1cc2ncnc(-c3ccc(CP(=O)(O)O)nc3)c2cc1OC [II-1, ((5-(6,7-dimethoxyquinazolin-4-yl)pyridin-2-yl)methyl)phosphonic acid] | – | – | – | – | > 50 | –
